Earlier results as cited in patent US20070260203A1, “Vasoactive agent intraocular implant” (ALLERGAN, INC., priority 2006, published 2007).
Like-named read-outs stand apart in the source and are kept apart here.

Columns and labels:
[1] = target: T1, endothelin-A receptor (Homo sapiens, UniProt P25101); settings: competitive antagonist of both ETA and ETB
T1 sequence (P25101 21-427): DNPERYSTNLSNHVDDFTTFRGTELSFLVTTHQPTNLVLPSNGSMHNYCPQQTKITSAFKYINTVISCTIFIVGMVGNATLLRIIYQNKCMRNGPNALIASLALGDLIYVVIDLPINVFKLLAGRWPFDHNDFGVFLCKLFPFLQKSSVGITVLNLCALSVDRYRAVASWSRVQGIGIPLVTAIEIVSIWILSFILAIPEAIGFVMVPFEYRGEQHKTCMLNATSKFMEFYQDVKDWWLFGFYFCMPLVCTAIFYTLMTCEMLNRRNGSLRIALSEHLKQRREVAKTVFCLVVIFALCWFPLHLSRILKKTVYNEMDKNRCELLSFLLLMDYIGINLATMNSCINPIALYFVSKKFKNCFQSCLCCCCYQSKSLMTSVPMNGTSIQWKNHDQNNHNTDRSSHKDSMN

Row | Compound | effective concentration (endothelin receptor antagonist, Giersbergen et al. 2005) | affinity for the ETA receptor relative to ETB receptor [1] | effective concentration (Yoshitomi et al. 2000, rabbit ciliary artery)
1 | COc1ccccc1Oc1c(NS(=O)(=O)c2ccc(C(C)(C)C)cc2)nc(-c2ncccn2)nc1OCCO [Bosentan] | 0.3 to 3 µg/mL | slightly higher affinity | 
2 | CC[C@@H]1C(=O)OC[C@@H]1Cc1cncn1C [pilocarpine] |  |  | 1 to 10 µM
